Test results reported in ChEMBL document CHEMBL1201862, “PubChem BioAssay data set” (2004).
Active and inactive are the calls of the source.

Assays:
[1] = target: Glucose-6-phosphate 1-dehydrogenase (Homo sapiens, UniProt P11413); assay: human G6PD enzyme inhibitors, dose response, selectivity assay for P. falciparum G6PD inhibitor project, biochemical, fluorescence (AID 504792); format: functional
[2] = target: DNA dC->dU-editing enzyme APOBEC-3A (Homo sapiens, UniProt P31941); assay: APOBEC3A DNA deaminase inhibitors, dose response, biochemical (AID 504722); format: functional
[3] = target: DNA dC->dU-editing enzyme APOBEC-3G (Homo sapiens, UniProt Q9HC16); assay: Dose Response confirmation of small molecule APOBEC3G DNA Deaminase Inhibitors via a fluorescence-based single-stranded DNA deaminase assay. [Related pubchem assays (depositor defined):AID493012, AID493028]; format: functional
[4] = target: Mitochondrial peptide methionine sulfoxide reductase (Bos taurus, UniProt P54149); assay: Absorbance-based biochemical high throughput dose response assay for activators of Methionine sulfoxide reductase A (MsrA).; format: functional
[5] = target: Large T antigen (Simian virus 40, UniProt P03070); format: functional, Betapolyomavirus macacae;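 further: Confirmatory-stage PubChem screen for compounds that inhibit SV40 T antigen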
[6] = HepG2 cell cytotoxicity, dose response, cytotoxicity control for Shn3 inhibitor project, CellTiter-Glo, cherry-picked (AID 624134); format: functional, cell-based
[7] = target: Protein Wnt-3a (Mus musculus, UniProt P27467); assay: Wnt3a-driven reporter signaling inhibition, dose response, selectivity assay for Gli-SUFU antagonist project, Wnt-LIGHT cells, luminescence (AID 651570); format: functional; details: read-out: IC50_Mean;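 further: Wnt-LIGHT reporter cells stimulated with conditioned medium from Wnt3a-producing cells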
[8] = Shn3 3'UTR reporter inhibitors, dose response, cell-based, Clone20 osteoblasts, firefly luciferase, cherry-picked (AID 624132); format: functional;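 further: firefly luciferase luminescence from reporter carrying the Shn3 3'UTR in osteoblasts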
[9] = system: BJ; assay: cytotoxicity toward Ras-transformed BJeLR fibroblasts, dose response, cell-based, alamar blue fluorescence, cherrypicked samples (AID 2631); format: functional; details: Homo sapiens;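 further: confirmatory dose-response assay in RAS-dependent BJ fibroblasts engineered with TERT, LT and ST, with cytotoxicity read by fluorescence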
[10] = system: BJ; assay: cytotoxicity toward BJ-TERT fibroblasts, dose response, cell-based, RAS-independent, luminescence (AID 1933); format: functional; details: Homo sapiens
[11] = cytotoxicity toward DRD oncogenic fibroblasts, dose response, cell-based, non-viral oncogenic, luminescence (AID 1934); format: functional; details: Homo sapiens
[12] = system: BJ; assay: cells; format: functional, cell-based; details: Homo sapiens
[13] = system: BJ; assay: cytotoxicity toward BJ-TERT-LT-ST fibroblasts, dose response, cell-based, RAS-independent, luminescence (AID 1935); format: functional; details: Homo sapiens;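 further: BJ fibroblasts immortalized with TERT plus LT and ST oncogenes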
[14] = system: Vero; assay: cells; format: functional; details: Chlorocebus sabaeus
[15] = system: Vero; assay: cells; format: functional, cell-based; details: Chlorocebus sabaeus
[16] = Luminescence Cell-Based Dose Response HTS to Identify Inhibitors of 5'UTR Stem-Loop Driven Prion Protein mRNA Translation in H4 Neuroglioblastoma Cells. [Related pubchem assays: 1827 (Project Summary), 1813 (Primary HTS)]; format: functional
[17] = inhibitors of SNCA 5'UTR-driven reporter translation, confirmation, H4 neuroglioma cells, luminescence (AID 1988); format: functional, cell-based
[18] = system: INS1; assay: beta cell apoptosis inhibitors, cytokine rescue, dose response, luminescence, retest (AID 449756); format: functional, cell-based; details: Rattus norvegicus;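 further: cell death triggered by IL-1 beta plus TNF-alpha plus IFN-gamma mixture; protective hits raise ATP signal compared with cytokine alone wells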
[19] = cytotoxicity in HEK-293T cells, dose response, cytotoxicity control for BCR NF-kB inhibitor project, luminescence, B-cell screen hits (AID 489021); format: functional, cell-based;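 further: HEK-293T cells carrying an NF-kB luciferase reporter; cells exposed to compound for about 14 hours before viability readout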
[20] = inhibitors of firefly luciferase expression or activity, dose response, H4 neuroglioma cells, luminescence (AID 1990); format: functional, cell-based
[21] = cytotoxicity in MIN6 insulinoma cells, dose response, cytotoxicity control, cell-based, mouse insulinoma (AID 2122); format: functional;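 further: confirmatory high-throughput counterscreen run to flag cytotoxic compounds; mouse MIN-6 beta cells carrying an insulin promoter eGFP reporter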
[22] = growth suppression of PTEN-null colon cells, dose response, cell-based, HCT116 PTEN knockout (AID 1047); format: functional;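 further: HCT116 colon tumor cells with PTEN knocked out; cells exposed to compound for 60 hours before readout; potency for loss of cell viability measured by luminescence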
[23] = target: T1, Heat shock factor protein 1 (Mus musculus, UniProt P38532); assay: HSF1 potentiators in luciferase reporter cells, confirmation, cell-based, NIH3T3, luminescence, dose retest (AID 435004); format: functional;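 further: stress induced by proteasome inhibitor MG132 added 30 min after compound; luciferase reporter driven by HSF1 response element in NIH3T3 cells; actives raise luminescence as potentiators of the MG132 stress response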
T1 sequence (P38532 whole entry): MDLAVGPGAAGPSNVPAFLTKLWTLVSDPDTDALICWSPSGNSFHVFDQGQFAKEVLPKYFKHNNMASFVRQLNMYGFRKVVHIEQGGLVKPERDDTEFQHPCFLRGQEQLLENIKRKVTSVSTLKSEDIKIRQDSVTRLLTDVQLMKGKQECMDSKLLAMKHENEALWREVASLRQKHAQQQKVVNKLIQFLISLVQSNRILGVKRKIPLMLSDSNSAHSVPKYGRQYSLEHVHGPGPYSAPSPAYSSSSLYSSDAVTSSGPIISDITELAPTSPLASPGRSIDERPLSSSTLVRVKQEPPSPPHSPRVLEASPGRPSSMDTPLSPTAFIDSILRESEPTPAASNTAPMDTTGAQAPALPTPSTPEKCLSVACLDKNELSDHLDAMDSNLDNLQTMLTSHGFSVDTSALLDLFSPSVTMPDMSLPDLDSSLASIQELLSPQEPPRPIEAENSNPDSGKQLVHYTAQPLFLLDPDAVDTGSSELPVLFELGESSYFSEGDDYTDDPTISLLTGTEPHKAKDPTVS

[24] = target: T2, High affinity choline transporter 1 (Homo sapiens, UniProt Q9GZV3); assay: CHT inhibitors, dose response, cell-based, 10-point CRC, membrane potential dye (AID 588401); format: functional;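 further: membrane potential dye fluorescence of choline-evoked depolarization via CHT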
T2 sequence (Q9GZV3 whole entry): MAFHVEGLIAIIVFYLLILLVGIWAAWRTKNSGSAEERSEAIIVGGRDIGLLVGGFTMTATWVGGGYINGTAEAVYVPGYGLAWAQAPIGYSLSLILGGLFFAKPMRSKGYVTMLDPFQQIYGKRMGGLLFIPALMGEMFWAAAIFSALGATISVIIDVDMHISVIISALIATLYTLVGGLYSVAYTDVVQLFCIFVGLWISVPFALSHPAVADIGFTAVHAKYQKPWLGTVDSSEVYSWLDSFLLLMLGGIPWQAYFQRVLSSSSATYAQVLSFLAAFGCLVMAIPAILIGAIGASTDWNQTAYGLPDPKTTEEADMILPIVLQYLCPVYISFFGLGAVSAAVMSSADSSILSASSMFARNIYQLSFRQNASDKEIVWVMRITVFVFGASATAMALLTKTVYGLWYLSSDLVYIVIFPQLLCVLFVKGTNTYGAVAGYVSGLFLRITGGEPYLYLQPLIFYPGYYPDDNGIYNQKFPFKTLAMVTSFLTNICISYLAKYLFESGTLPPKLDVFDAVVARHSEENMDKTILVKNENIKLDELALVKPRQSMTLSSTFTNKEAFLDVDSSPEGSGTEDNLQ

[25] = growth suppression of beta-catenin-knockout colon cells, dose response, cell-based, HCT116, human colon tumor (AID 1045); format: functional;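 further: HCT116 colon tumor cells with beta catenin knocked out; cells exposed to compound for 60 hours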
[26] = insulin promoter down-regulators in MIN6 cells, imaging, high-content screening, mouse beta cells (AID 1628); format: functional
[27] = target: T2, High affinity choline transporter 1; assay: CHT inhibitors, dose response, cell-based, 5-point CRC, membrane potential dye (AID 504840); format: functional

Sequence of Protein Wnt-3a (P27467 whole entry): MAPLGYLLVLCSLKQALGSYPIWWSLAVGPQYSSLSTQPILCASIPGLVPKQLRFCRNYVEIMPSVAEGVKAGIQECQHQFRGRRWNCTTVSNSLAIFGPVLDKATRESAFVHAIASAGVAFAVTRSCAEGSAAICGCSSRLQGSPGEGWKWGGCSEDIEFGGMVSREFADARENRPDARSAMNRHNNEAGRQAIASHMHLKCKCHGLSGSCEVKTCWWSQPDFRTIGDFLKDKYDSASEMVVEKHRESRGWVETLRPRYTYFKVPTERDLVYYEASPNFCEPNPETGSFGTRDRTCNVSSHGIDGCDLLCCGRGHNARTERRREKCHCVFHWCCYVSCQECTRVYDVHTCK
Sequence of Mitochondrial peptide methionine sulfoxide reductase (P54149 whole entry): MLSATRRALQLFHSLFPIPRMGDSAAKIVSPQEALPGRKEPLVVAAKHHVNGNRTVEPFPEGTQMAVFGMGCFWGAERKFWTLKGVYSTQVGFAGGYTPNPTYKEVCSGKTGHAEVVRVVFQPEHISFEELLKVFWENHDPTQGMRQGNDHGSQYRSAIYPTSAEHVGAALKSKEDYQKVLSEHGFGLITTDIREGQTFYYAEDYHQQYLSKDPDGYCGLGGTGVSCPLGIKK
Sequence of Glucose-6-phosphate 1-dehydrogenase (P11413 whole entry): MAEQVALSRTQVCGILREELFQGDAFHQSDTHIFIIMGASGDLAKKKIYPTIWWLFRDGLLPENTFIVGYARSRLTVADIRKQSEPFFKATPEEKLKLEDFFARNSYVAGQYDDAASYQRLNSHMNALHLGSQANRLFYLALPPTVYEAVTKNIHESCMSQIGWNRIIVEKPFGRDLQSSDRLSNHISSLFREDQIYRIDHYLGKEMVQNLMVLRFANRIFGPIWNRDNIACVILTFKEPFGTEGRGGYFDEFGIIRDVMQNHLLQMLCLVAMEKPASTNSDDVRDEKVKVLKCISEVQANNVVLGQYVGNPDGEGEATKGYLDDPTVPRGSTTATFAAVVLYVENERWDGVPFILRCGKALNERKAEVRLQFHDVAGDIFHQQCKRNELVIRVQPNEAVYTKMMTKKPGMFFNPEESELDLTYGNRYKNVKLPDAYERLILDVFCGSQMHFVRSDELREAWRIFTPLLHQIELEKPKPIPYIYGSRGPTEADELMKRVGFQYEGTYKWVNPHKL
Sequence of Large T antigen (P03070 whole entry): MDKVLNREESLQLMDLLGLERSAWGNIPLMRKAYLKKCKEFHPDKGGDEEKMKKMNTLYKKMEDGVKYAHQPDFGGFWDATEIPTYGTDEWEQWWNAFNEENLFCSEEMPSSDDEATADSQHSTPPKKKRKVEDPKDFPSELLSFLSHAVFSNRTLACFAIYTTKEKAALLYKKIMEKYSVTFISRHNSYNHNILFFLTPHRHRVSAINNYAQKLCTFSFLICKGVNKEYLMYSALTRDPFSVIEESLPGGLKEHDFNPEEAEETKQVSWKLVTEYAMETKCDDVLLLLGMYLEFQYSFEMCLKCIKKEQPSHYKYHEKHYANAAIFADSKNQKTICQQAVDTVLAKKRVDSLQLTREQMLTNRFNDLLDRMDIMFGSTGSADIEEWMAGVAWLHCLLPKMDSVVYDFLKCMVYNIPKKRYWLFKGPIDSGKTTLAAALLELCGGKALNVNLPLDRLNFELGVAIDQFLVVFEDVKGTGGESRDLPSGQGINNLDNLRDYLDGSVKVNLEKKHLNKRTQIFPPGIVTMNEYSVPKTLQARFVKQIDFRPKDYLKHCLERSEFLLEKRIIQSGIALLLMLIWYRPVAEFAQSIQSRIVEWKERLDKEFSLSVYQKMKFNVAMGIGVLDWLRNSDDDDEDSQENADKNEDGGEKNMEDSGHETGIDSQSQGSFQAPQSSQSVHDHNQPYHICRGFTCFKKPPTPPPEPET
Sequence of DNA dC->dU-editing enzyme APOBEC-3G (Q9HC16 whole entry): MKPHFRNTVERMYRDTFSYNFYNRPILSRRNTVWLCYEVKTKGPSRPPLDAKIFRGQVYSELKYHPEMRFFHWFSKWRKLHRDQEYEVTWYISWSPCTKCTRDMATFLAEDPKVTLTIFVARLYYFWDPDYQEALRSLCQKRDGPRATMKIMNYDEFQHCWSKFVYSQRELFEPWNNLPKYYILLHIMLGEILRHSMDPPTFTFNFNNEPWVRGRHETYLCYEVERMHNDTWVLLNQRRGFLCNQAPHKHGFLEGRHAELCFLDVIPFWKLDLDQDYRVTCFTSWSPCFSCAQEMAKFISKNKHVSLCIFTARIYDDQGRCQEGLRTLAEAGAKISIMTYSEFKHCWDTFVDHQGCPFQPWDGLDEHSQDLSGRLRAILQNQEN
Sequence of DNA dC->dU-editing enzyme APOBEC-3A (P31941 whole entry): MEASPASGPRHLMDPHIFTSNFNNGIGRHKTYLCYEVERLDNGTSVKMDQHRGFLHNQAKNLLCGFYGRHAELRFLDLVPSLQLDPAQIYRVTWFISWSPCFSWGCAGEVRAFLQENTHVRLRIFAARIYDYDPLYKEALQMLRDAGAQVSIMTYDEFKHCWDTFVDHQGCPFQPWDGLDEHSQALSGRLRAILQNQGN

For `c1ccc(SSc2ccccn2)nc1`, which IC50 [1] is on record?
Its IC50 is > 80 µM (inactive).

And the IC50 [2]?
The IC50 was > 100 µM (inactive).

What about the IC50 [3] of the same compound?
Its IC50 is 3.88 µM (active).

And the EC50 [4]?
The EC50 was > 104 µM (inactive).

What about the IC50 [5] of the same compound?
The IC50 was > 100 µM (active).

What does the source list for `COc1cc(NS(=O)(=O)c2ccc(C)cc2C)cc(OC)c1OC`?
AC50 [6]: 5.37 µM (active); IC50 [7]: 1.38 µM (active); AC50 [8]: 4.95 µM (active)

What does the source list for `CC1=CC(=O)C=C(C)C1=NOc1ccccc1[N+](=O)[O-]`?
EC50 [9]: > 66.7 µM (inactive); EC50 [10]: 17.2 µM (inconclusive); EC50 [11]: > 150 µM (not active); EC50 [12]: 11.1 µM (inconclusive); EC50 [13]: > 75 µM (not active)

Which CC50 [14] does the source give for `CCOc1ccc(/C=C/c2nc(C#N)c(NCCCN(C)C)o2)cc1` here?
Its CC50 is > 25 µM (active).

And the IC50 [15]?
Its IC50 is 21.1 µM (active).

Which EC50 [16] does the source give for `CC1CC(C)CN(S(=O)(=O)c2ccc(C(=O)NCCCn3ccnc3)cc2)C1` (configuration not stated) here?
The EC50 was 0.873 µM (active).

What about the EC50 [9] of the same compound?
Its EC50 is 5.61 µM (active).

What about the EC50 [17] of the same compound?
Its EC50 is 0.163 µM (active).

And the EC50 [10]?
Its EC50 is > 150 µM (not active).

And the EC50 [11]?
Its EC50 is 10 µM (inconclusive).

What about the EC50 [12] of the same compound?
Its EC50 is 5.76 µM (inconclusive).

And the AC50 [18]?
The AC50 was 0.437 µM (active).

And the IC50 [19]?
Its IC50 is > 80 µM (inactive).

And the EC50 [13]?
The EC50 was 4.2 µM (inconclusive).

What about the EC50 [20] of the same compound?
Its EC50 is 0.527 µM (active).

For `CCC(NC(C)c1ccccc1)=C1C(=O)N(C)C(=O)N(C)C1=O` (configuration not stated), which IC50 [21] is on record?
The IC50 was 2.81 µM (active).

What about the EC50 [22] of the same compound?
The EC50 was 47.9 µM (active).

What about the EC50 [23] of the same compound?
Its EC50 is > 260 µM (inactive).

And the IC50 [24]?
Its IC50 is 8.43 µM (active).

What about the EC50 [25] of the same compound?
Its EC50 is 50 µM (active).

What about the IC50 [26] of the same compound?
The IC50 was 2.84 µM (active).

And the IC50 [27]?
Its IC50 is 9.12 µM (active).
